Measured values from patent publication US20080096238A1, “HIGH THROUGHPUT ASSAY FOR HUMAN RHO KINASE ACTIVITY WITH ENHANCED SIGNAL-TO-NOISE RATIO” (ALCON, INC., priority 2004, published 2008).

How the values were obtained:
[1] = system: Ocular Hypertensive Monkey Eyes; experiment: Intraocular pressure reduction in conscious ocular hypertensive cynomolgus monkey eyes after topical ocular dosing; assay type: in vivo;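 further: mean of 8 drug-treated monkeys per time point, IOP change expressed against a vehicle-dosed control group of 5 monkeys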
Rabbit Eyes = experiment: Intraocular pressure reduction in rabbit eyes after topical ocular dosing; assay type: in vivo;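 further: mean IOP reduction per time point from 7-8 rabbits per group, drug-treated groups alongside vehicle-treated control groups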
[2] = target: T1, Human Recombinant ROCK II Enzyme (Homo sapiens, UniProt O75116); experiment: High throughput human recombinant ROCK II enzyme inhibition assay (γ-33P-ATP, Long S6 substrate peptide, filter mat); assay type: biochemical; details: mean ± SEM; for Hill Coefficient (nH): Hill coefficient of the inhibition plots; for IC50: recombinant human ROCK II (aa 11-552), 100 μM ATP, 30 min at 30° C., read-out: Inhibition Constant (IC50)
T1 construct: purchased Upstate USA, Inc., Lake Placid, N.Y. 14-451
Description: The enzyme assays are performed using a Biomek 2000 Robotic Workstation (Beckman Instruments, Palo Alto, Calif.) in a 96-well format using γ-^33P-ATP (Perkin-Elmer Life Sciences, Boston, Mass.). Stock γ-^33P-ATP (3000 Ci/mmol) is diluted to 1 μCi/μl with the MgCl2/ATP cocktail solution. The concentrations of MgCl2/ATP used are 15 mM and 100 μM, respectively. […] The unutilized [γ-^33P]-ATP and other residual reagents are thereby eliminated from the filter mat but the radioactive phosphorylated peptide product is retained on the filter mat for quantification. The automated washing of the filter mat thereby enhances the signal-to-noise ratio of the assay thus rendering it into a sensitive assay. The filter mats bearing the captured radioactive phosphorylated product are then dried in a microwave oven for 15 sec, placed in special sample cellophane bag (Wallac Inc., Turku, Finland) designed for these filter mats and covered with 20 ml of Betaplate scintillation fluid (Perkin-Elmer Inc., Boston, Mass.). The bags are then sealed using a heat sealer device (Wallac Inc., Turku, Finland) and a roller used to evenly spread the scintillation fluid over the whole of the filter mat.
In a further embodiment of the present invention, the dried filter mat can be covered with a solid scintillant (MELTILEX®; Wallac Inc., Turku, Finland) that is melted directly onto the filter mat using a MELTILEX® heat sealer (Wallac Inc., Turku, Finland), a device designed for this purpose. The coated filter mat is then placed in a sample cellophane bag (Wallac Inc., Turku, Finland) designed for these filter mats that is then sealed and the radioactivity determined as described above. The solid scintillant assists in avoiding the spread of radioactivity from sample to sample on the dried filter mat and thus minimizes variation of the data. A solid scintillant also eliminates waste disposal of liquid scintillation fluid.
The raw data from the filter mats are then automatically sent electronically to a computer for semi-automated analyses using algorithms and a suite of programs (XLFITT computer program; IDBS corporation, Emeryville, Calif.) that perform non-linear, iterative, sigmoidal-fit analyses of the raw data.

[3] = topical ocular dose 300 μg, 1 Hour Post Dosing
[4] = topical ocular dose 300 μg, 3 Hours Post Dosing
[5] = topical ocular dose 300 μg, 6 Hours Post Dosing
[6] = topical ocular dose 1 mg, 1 Hour Post Dosing
[7] = topical ocular dose 1 mg, 3 Hours Post Dosing
[8] = topical ocular dose 1 mg, 6 Hours Post Dosing
[9] = topical ocular dose 500 μg, 1 Hour Post Dosing
[10] = topical ocular dose 500 μg, 2 Hours Post Dosing
[11] = topical ocular dose 500 μg, 3 Hours Post Dosing
[12] = topical ocular dose 500 μg, 4 Hours Post Dosing
[13] = topical ocular dose 500 μg, 6 Hours Post Dosing
[14] = topical ocular dose 300 μg, 2 Hours Post Dosing
[15] = topical ocular dose 300 μg, 4 Hours Post Dosing

T1 sequence (O75116 11-552): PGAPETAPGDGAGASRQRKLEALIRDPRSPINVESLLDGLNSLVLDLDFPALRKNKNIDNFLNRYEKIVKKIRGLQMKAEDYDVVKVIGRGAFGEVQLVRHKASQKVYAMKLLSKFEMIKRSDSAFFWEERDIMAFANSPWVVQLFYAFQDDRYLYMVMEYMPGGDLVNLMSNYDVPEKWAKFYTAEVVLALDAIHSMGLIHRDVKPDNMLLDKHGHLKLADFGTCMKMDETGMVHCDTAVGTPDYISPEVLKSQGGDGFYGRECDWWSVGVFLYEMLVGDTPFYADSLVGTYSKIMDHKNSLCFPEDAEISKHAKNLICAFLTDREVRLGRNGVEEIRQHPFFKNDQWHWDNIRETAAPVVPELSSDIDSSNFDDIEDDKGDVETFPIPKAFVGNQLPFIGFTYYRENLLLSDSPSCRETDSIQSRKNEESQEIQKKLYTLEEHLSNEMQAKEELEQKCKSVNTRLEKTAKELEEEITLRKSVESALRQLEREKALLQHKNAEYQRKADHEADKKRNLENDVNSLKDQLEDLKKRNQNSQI

SMILES	% Max. IOP Reduction in Ocular Hypertensive Monkey Eyes [1, 3] [%]	% Max. IOP Reduction in Ocular Hypertensive Monkey Eyes [1, 4] [%]	% Max. IOP Reduction in Ocular Hypertensive Monkey Eyes [1, 5] [%]	% Max. IOP Reduction in Ocular Hypertensive Monkey Eyes [1, 6] [%]	% Max. IOP Reduction in Ocular Hypertensive Monkey Eyes [1, 7] [%]	% Max. IOP Reduction in Ocular Hypertensive Monkey Eyes [1, 8] [%]	% Max. IOP Reduction in Rabbit Eyes (Rabbit Eyes; [9]) [%]	% Max. IOP Reduction in Rabbit Eyes (Rabbit Eyes; [10]) [%]	% Max. IOP Reduction in Rabbit Eyes (Rabbit Eyes; [11]) [%]	% Max. IOP Reduction in Rabbit Eyes (Rabbit Eyes; [12]) [%]	Hill Coefficient (nH) [2]	% Max. IOP Reduction in Ocular Hypertensive Monkey Eyes [1, 9] [%]	% Max. IOP Reduction in Ocular Hypertensive Monkey Eyes [1, 11] [%]	% Max. IOP Reduction in Ocular Hypertensive Monkey Eyes [1, 13] [%]	also measured
Cc1cncc2cccc(S(=O)(=O)N3CCCNCC3C)c12 (stereo not drawn) [A, HMN-1152]	29	30	21	42	51	36	34	34	27	19					% Max. IOP Reduction in Ocular Hypertensive Monkey Eyes ([1]; topical ocular dose 100 μg, 1 Hour Post Dosing): 28%; % Max. IOP Reduction in Ocular Hypertensive Monkey Eyes ([1]; topical ocular dose 100 μg, 3 Hours Post Dosing): 25%; % Max. IOP Reduction in Ocular Hypertensive Monkey Eyes ([1]; topical ocular dose 100 μg, 6 Hours Post Dosing): 19%; % Max. IOP Reduction in Rabbit Eyes (Rabbit Eyes; [6]): 29%; % Max. IOP Reduction in Rabbit Eyes (Rabbit Eyes; topical ocular dose 1 mg, 2 Hours Post Dosing): 35%; % Max. IOP Reduction in Rabbit Eyes (Rabbit Eyes; [7]): 32%; % Max. IOP Reduction in Rabbit Eyes (Rabbit Eyes; topical ocular dose 1 mg, 4 Hours Post Dosing): 24%
Cc1cncc2c1=C(S(=O)(=O)N1CCCN(C)CC1C)CCC=2 (stereo not drawn) [B]											0.6 ± 0.2				IC50 [2]: 0.485 ± 0.207 µM
O=S(=O)(c1cccc2cnccc12)N1CCCNCC1 [D, Fasudil, Fasudil]							25	33	25	17		33	28	16	% Max. IOP Reduction in Rabbit Eyes (Rabbit Eyes; [3]): 17%; % Max. IOP Reduction in Rabbit Eyes (Rabbit Eyes; [14]): 29%; % Max. IOP Reduction in Rabbit Eyes (Rabbit Eyes; [4]): 26%; % Max. IOP Reduction in Rabbit Eyes (Rabbit Eyes; [15]): 20%
CC1CNCCN1S(=O)(=O)c1cccc2cnccc12 (stereo not drawn) [E, H-7]				31	21	12	19	11	0	6	0.99 ± 0.13				
Cc1cncc2cccc(S(=O)(=O)N3CCNC(C)C3)c12 (stereo not drawn) [F]											0.94 ± 0.11	23	20	20	
CC(N)[C@H]1CC[C@H](C(=O)Nc2ccccc2)CC1 (stereo partly drawn) [G, Y-27632]	15	14	8	24	36	32									% Max. IOP Reduction in Rabbit Eyes (Rabbit Eyes; topical ocular dose 2 mg, 1 Hour Post Dosing): 26%; % Max. IOP Reduction in Rabbit Eyes (Rabbit Eyes; topical ocular dose 2 mg, 2 Hours Post Dosing): 28%; % Max. IOP Reduction in Rabbit Eyes (Rabbit Eyes; topical ocular dose 2 mg, 3 Hours Post Dosing): 29%; % Max. IOP Reduction in Rabbit Eyes (Rabbit Eyes; topical ocular dose 2 mg, 4 Hours Post Dosing): 27%
Cc1cncc2cccc(S(=O)(=O)N3CCCN(C)C(C)C3)c12 (stereo not drawn) [H]											0.95 ± 0.16				
CC1CN(S(=O)(=O)c2cccc3cnccc23)CCN1 (stereo not drawn) [I, HA-135]											0.91 ± 0.28	19	15	1	
O=S(=O)(c1cccc2c(Cl)cccc12)N1CCCNCC1 [J, ML-9]	7	6	5								0.9 ± 0.3				% Max. IOP Reduction in Rabbit Eyes (Rabbit Eyes; [3]): 8%; % Max. IOP Reduction in Rabbit Eyes (Rabbit Eyes; [14]): 23%; % Max. IOP Reduction in Rabbit Eyes (Rabbit Eyes; [4]): 0.4%; % Max. IOP Reduction in Rabbit Eyes (Rabbit Eyes; [15]): 6%; IC50 [2]: 12 µM
